In paper PMC6136348, “In the quest for new targets for pathogen eradication: the adenylosuccinate synthetase from the bacterium Helicobacter pylori” (Journal of Enzyme Inhibition and Medicinal Chemistry, 2018):

Columns and labels:
[1] = biological target: T1, adenylosuccinate synthetase (AdSS) (Helicobacter pylori, UniProt P56137); test: spectrophotometric enzyme assay at […] nm, competitive inhibition fit and Dixon plot (reaction product tested as inhibitor); type: biochemical
T1 construct: gene purA; recombinant protein expressed from pET21b-HPpurA
T1 sequence (P56137 1-411): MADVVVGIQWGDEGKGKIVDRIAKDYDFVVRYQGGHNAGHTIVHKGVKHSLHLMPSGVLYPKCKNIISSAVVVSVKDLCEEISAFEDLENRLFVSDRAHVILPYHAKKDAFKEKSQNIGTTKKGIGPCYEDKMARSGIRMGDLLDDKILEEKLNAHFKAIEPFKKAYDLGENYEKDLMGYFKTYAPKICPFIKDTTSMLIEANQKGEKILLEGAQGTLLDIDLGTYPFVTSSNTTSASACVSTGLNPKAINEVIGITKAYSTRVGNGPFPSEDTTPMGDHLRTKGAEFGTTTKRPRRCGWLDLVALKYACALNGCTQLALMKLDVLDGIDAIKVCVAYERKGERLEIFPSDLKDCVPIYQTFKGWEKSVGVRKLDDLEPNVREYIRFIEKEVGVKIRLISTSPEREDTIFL

[2] = biological target: T1, adenylosuccinate synthetase (AdSS); test: spectrophotometric enzyme assay at […] nm, competitive inhibition fit and Dixon plot; type: biochemical

Row | Compound | Ki [1] | Ki [2]
1 | O=C(O)C[C@H](Nc1ncnc2c1ncn2[C@@H]1O[C@H](COP(=O)(O)O)[C@@H](O)[C@H]1O)C(=O)O [adenylosuccinate] | 3500 ± 300 nM | –
2 | O=CN(O)CC(=O)O [hadacidin] | – | 190 ± 20 nM
